{"source": "patent US20050112064A1", "about": "“DNA-dependent MRI contrast agents” (priority 2003, published 2005)", "key": {"[1]": {"test_system": "supercoiled plasmid DNA (pBR322)", "experiment": "DNA gel shift assay (agarose gel electrophoresis)", "format": "binding", "details": "5-25 μM ligand, 15 minutes, pBR322, 10 mM Tris pH 8.0", "procedure": "DNA Gel Shift Assays. The affinity of EuP3, EuP2, and each free peptide for supercoiled plasmid DNA was examined by agarose gel electrophoresis. Plasmid (pBR322, New England Biolabs, Inc.) was incubated for 15 minutes at room temperature with increasing concentrations of each ligand (5-25 μM), prior to the addition of loading dye. Each lane contained 1 μg plasmid (50 μM base pairs) in 10 mM Tris buffer at pH 8.0."}, "[2]": {"experiment": "Hydrolysis of bis-nitrophenylphosphate (BNPP) followed spectrophotometrically", "format": "biochemical", "details": "37° C., BNPP 500 μM", "procedure": "Hydrolytic Phosphate Cleavage. Because the EF-Hand is physiologically strictly a structural motif, an isolated Ca-binding loop's ability to affect hydrolytic cleavage was addressed. The hydrolysis of bis-nitrophenylphosphate (BNPP) was followed spectrophotometrically under turnover conditions. The absorbance increase at 400 nm due to liberated 4-nitrophenolate was observed over the initial 10-14 hours of the reaction (<10% BNPP converted). […] Plots of absorbance vs. time were converted to concentration units (ε=18,500 M^−1 cm^−1) to give first order rate constants (Sardesai et al., 1994)."}, "[3]": {"test_system": "14-mer d.s. DNA: self-complementary 5′-GAGCTAATTAGCTC-3′", "experiment": "Relaxivity in the presence of one equivalent DNA", "format": "physicochemical", "details": "37° C., 50 mM HEPES, pH 7.4, one equivalent DNA", "procedure": "(§1) P3W peptide ([…], Gd-binding EF-hand site is shaded) was synthesized and purified (>95% by HPLC) by the Caltech Peptide Synthesis Facility, Pasadena, Calif. The gadolinium complex was prepared by dissolving P3W in 50 mM HEPES buffer, pH 7.4, and adding 0.8 equivalents Gd(NO3)3 to give a 500 μM stock solution. Peptide concentration was estimated by absorbance (ε280=7290 M^−1cm^−1); the absence of uncomplexed Gd^3+ was confirmed by colorometric analysis with xylenol orange. All Gd concentrations were determined by ICP-MS (Agilent 7500). Relaxation rates were determined at 20 and 60 MHz, 37° C. using Broker NMS 120 and Brtiker mg60 Minispec spectrometers, respectively. NMRD profiles were recorded on a Koenig-Brown field cycling relaxometer; phantoms were imaged on a GE 1.5T clinical imager."}, "[4]": {"experiment": "Relaxivity (water proton relaxation) without DNA", "format": "physicochemical", "details": "37° C., 50 mM HEPES, pH 7.4", "procedure": "as §1"}, "[5]": {"experiment": "T1-weighted MR imaging of phantoms at 1.5 tesla", "details": "1.5 T, HEPES buffer pH 7.4, ambient temperature", "procedure": "FIG. 6. T1-weighted MR images at 1.5 tesla of phantoms in HEPES buffer, pH 7.4, ambient temperature. (A) 3D SPGR TR=40, TE=3.1, α=75°. Images: a) HEPES; b) 80 μM P3W; c) 80 μM DNA (14-mer duplex); d) 115 μM GdDTPA; e) 115 μM GdDTPA+DNA (1:1); f) 8.6 μM GdP3W+DNA (1:1); g) 86 μM GdP3W; h) 86 μM GdP3W+DNA (1:1); i) 86 μM GdP3W+DNA (1:1)+NaCl (150 μM). (B) 3D SPGR TR=40, TE=4.0, α=40°. Images: a) HEPES, b) 48 μM GdDTPA, c) 48 μM GdP3W; d) 48 μM GdP3W+DNA.\nas §1"}, "[6]": {"details": "cited from earlier work"}, "[7]": {"test_system": "supercoiled, double-stranded DNA", "experiment": "Cleavage of supercoiled plasmid monitored by agarose gel electrophoresis", "format": "biochemical", "procedure": "The conversion of supercoiled plasmid (type I) to open circular (type II), linear (type III), or smaller fragments was monitored by agarose gel electrophoresis. Because the synthetic peptides bind strongly to DNA, thus preventing the observation of products, the peptides were chelated prior to electrophoresis (Falke et al., 1994). At the point each reaction was quenched (0.1 M EDTA), a suspension of neutral, washed, cation resin (Amberlyst, 10-20 μL) was incubated with each sample for 30 minutes, spun down, and the supernatent loaded into wells. After 24 hours of reaction (incubated at 37° C.), the concentration-dependent formation of open circular plasmid was observed. […] Over a 10-300 μM EuP3 gradient, nicking occurred from 10-150 μM, with the greatest amount of cleavage at 30 μM EuP3.\nSequence Selective DNA Cleavage. […] This cleavage is not dependent on the strain inherent in supercoiled plasmid, as cleavage of linearized ^32P-labeled DNA oligonucleotides was observed as well. Labeled fragments were incubated with Ce(NH3)6(NO3)4 and varying concentrations of peptides P3 or P3W at 37° C. overnight and analyzed by acrylamide gel electrophoresis. Cleavage was concentration dependent, and distinct between metallopeptides."}, "[8]": {"test_system": "T1, P3 (engrailed HTH / consensus EF-hand chimeric peptide) (synthetic construct)", "T1 sequence": "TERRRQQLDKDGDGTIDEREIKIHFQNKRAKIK", "experiment": "EMSA", "details": "Eu(III) complex EuP3; agarose gel shift, estimate from quantified band volumes; 10 mM Tris pH 8.0, room temp"}, "[9]": {"target": "P4a (chimeric peptide: alpha2 and alpha3 of engrailed, minus the last turn of alpha2 and the beta-turn, with calmodulin loop I)", "experiment": "measured dissociation constants for EuP4a; method not stated; self-association in the presence of Eu(III)"}, "[10]": {"details": "10 μM Eu/10 μM peptide, pH 7.7, 10 mM Tris buffer"}, "[11]": {"details": "25 μM Eu/25 μM peptide, pH 7.7, 10 mM Tris buffer"}, "[12]": {"details": "25 μM Eu/50 μM peptide, pH 7.7, 10 mM Tris buffer"}}, "note": "Entries after “also recorded” stand apart in the source; their conditions may differ. Read-outs that look alike come from different tables or passages of the source. Where no end group is shown, it is not given here."}
{"molecule": "[Cl][Eu]([Cl])[Cl]", "note": "[EuCl3, reference compound]", "values": [{"measurement": "gel shift / DNA affinity (in words)", "setting": "[1]", "result": "not"}, {"measurement": "Rates (K(obs)) of BNPP cleavage", "setting": "[2]; 10 μM Eu/0 peptide, pH 7.7, 5 mM Tris buffer", "result": "5.2 ± 0.6", "unit": "s^−1 × 10^7"}, {"measurement": "Rates (K(obs)) of BNPP cleavage", "setting": "[2]; 12 μM Eu/0 peptide, pH 7.7, 5 mM Tris buffer", "result": "5.7 ± 0.3", "unit": "s^−1 × 10^7"}]}
{"molecule": "O=C([O-])CN(CCN(CC(=O)[O-])CC(=O)O)CCN(CC(=O)[O-])CC(=O)O.[Gd+3]", "note": "[GdDTPA]", "values": [{"measurement": "r1 + DNA", "setting": "[3]; 20 MHz", "result": 4.9, "unit": "mM⁻¹ s⁻¹"}, {"measurement": "r1 + DNA", "setting": "[3]; 60 MHz", "result": 3.5, "unit": "mM⁻¹ s⁻¹"}, {"measurement": "r1", "setting": "[4]; 20 MHz", "result": 4.6, "unit": "mM⁻¹ s⁻¹"}, {"measurement": "r1", "setting": "[4]; 60 MHz", "result": 3.5, "unit": "mM⁻¹ s⁻¹"}, {"measurement": "signal / contrast in T1-weighted image, with DNA (1:1)", "setting": "[5]", "result": "did not increase the signal"}, {"measurement": "signal / contrast in T1-weighted image, without DNA", "setting": "[5]", "result": "difficult to discern"}]}
{"molecule": "O=C([O-])CN(CCN(CC(=O)[O-])C[C@H](COP(=O)([O-])OC1CCC(c2ccccc2)(c2ccccc2)CC1)N(CC(=O)[O-])CC(=O)[O-])CC(=O)[O-].[Gd+3].[H+].[H+].[H+]", "note": "[MS-325]", "values": [{"measurement": "relaxivity", "setting": "[6]; 60 MHz", "result": 23, "unit": "mM⁻¹ s⁻¹"}]}
{"molecule": "EuP3: Eu(III) metallopeptide of P3 (TERRRQQLDKDGDGTIDEREIKIHFQNKRAKIK)", "values": [{"measurement": "gel shift / DNA affinity (in words)", "setting": "[1]", "result": "gel shift and disappearance of type I plasmid occurs; also recorded: DNA-binding affinity in the micromolar regime"}, {"measurement": "dependence of cleavage activity on increasing concentration", "setting": "[7]", "result": "falls off with increasing concentration"}, {"measurement": "concentration range in which nicking occurred", "setting": "[7]; 10-300 μM EuP3 gradient", "result": "10 to 150", "unit": "µM"}, {"measurement": "concentration with the greatest amount of cleavage", "setting": "[7]; 10-300 μM EuP3 gradient", "result": 30, "unit": "µM"}, {"measurement": "cleavage of supercoiled DNA (in words)", "setting": "[7]; 37° C.", "result": "catalyzes the cleavage of supercoiled, double-stranded DNA"}, {"measurement": "Rates (K(obs)) of BNPP cleavage", "setting": "[2]; [10]", "result": 6.0, "unit": "s^−1 × 10^7"}, {"measurement": "Rates (K(obs)) of BNPP cleavage", "setting": "[2]; [11]", "result": 7.3, "unit": "s^−1 × 10^7"}, {"measurement": "Rates (K(obs)) of BNPP cleavage", "setting": "[2]; [12]", "result": 20.6, "unit": "s^−1 × 10^7"}, {"measurement": "Rates (K(obs)) of BNPP cleavage", "setting": "[2]; 50 μM Eu/50 μM peptide, pH 7.7, 5 mM Tris buffer", "result": "17.5 ± 4", "unit": "s^−1 × 10^7"}, {"measurement": "Rates (K(obs)) of BNPP cleavage", "setting": "[2]; 50 μM Eu/100 μM peptide, pH 7.7, 5 mM Tris buffer", "result": "11.5 ± 4", "unit": "s^−1 × 10^7"}]}
{"molecule": "EuP4a: Eu(III) metallopeptide of P4a (TERRRFDKDGNGYISAAELRHVKIWFQNKRAKIK)", "values": [{"measurement": "dependence of cleavage activity on increasing concentration", "setting": "[7]", "result": "does not"}, {"measurement": "Rates (K(obs)) of BNPP cleavage", "setting": "[2]; [10]", "result": 11.3, "unit": "s^−1 × 10^7"}, {"measurement": "Rates (K(obs)) of BNPP cleavage", "setting": "[2]; [11]", "result": 56.3, "unit": "s^−1 × 10^7"}, {"measurement": "Rates (K(obs)) of BNPP cleavage", "setting": "[2]; [12]", "result": 62.0, "unit": "s^−1 × 10^7"}, {"measurement": "Rates (K(obs)) of BNPP cleavage", "setting": "[2]; 50 μM Eu/50 μM peptide, pH 7.7, 10 mM Tris buffer", "result": 149.5, "unit": "s^−1 × 10^7"}, {"measurement": "Rates (K(obs)) of BNPP cleavage", "setting": "[2]; 50 μM Eu/100 μM peptide, pH 7.7, 10 mM Tris buffer", "result": 212.0, "unit": "s^−1 × 10^7"}]}
{"molecule": "Gd-TREN-1-Me=3,2-HOPO", "values": [{"measurement": "relaxivity", "setting": "[6]; 20 MHz and 37° C.", "result": "6 to 11", "unit": "mM⁻¹ s⁻¹"}]}
{"molecule": "pBR322 supercoiled plasmid", "values": [{"measurement": "Kd", "setting": "[8]", "result": 20, "unit": "µM"}]}
{"molecule": "TERRRFDKDGNGYISAAELRHVKIWFQNKRAKIK (also: Eu(III) complex)", "values": [{"measurement": "Kdim (dimerization constant)", "setting": "[9]", "result": "> 300", "unit": "µM"}]}
